From patent publication US20120129898A1, “PHARMACEUTICAL COMPOSITIONS FOR POORLY SOLUBLE DRUGS” (priority 2007, published 2012)

How the values were obtained:
[1] = Aqueous solubility of HEP; format: physicochemical
[2] = Exposure after dosing crystalline HEP in animal species; format: in vivo; conditions: crystalline form dosed in animal species

Aqueous solubility [1]: poor aqueous solubility
Exposure of crystalline form (even nanocrystalline) [2]: very low exposure
Structure (SMILES): CCC(=O)c1csc(NC(=O)[C@H]([C@@H](C)c2ccccc2)N2C(=O)N[C@H](c3ccc(OCCO)cc3)C2=O)n1 [HEP, (2S,3S)-2-{(R)-4-[4-(2-hydroxy-ethoxy)-phenyl]-2,5-dioxo-imidazolidin-1-yl}-3-phenyl-N-(4-propionyl-thiazol-2-yl)-butyramide]
